Laboratory results: ChEMBL document CHEMBL1132928 (J Med Chem, 2000)
Calls of active or inactive are those of the source. No cut-off for these calls is given here. Where a SMILES comes first, the peptide text is derived from it. Bridges are numbered along the chain shown (N, C = ends).

Tests used:
[1] = In vitro adenylate cyclase activity using rat liver plasma membrane bioassay. Value is inactive up to 50 uM
[2] = molecular target: Glucagon receptor (Rattus norvegicus) (UniProt P30082); experiment: In vitro receptor binding affinity using rat liver plasma membrane bioassay; inactive
[3] = molecular target: Adenylate cyclase type 5 (Rattus norvegicus) (UniProt Q04400); experiment: Percent stimulation ofcAMP production was measured in vitro using rat liver plasma membrane bioassay; none; format: functional, cell-free
[4] = In vitro adenylate cyclase activity using rat liver plasma membrane bioassay; format: tissue-based
[5] = molecular target: Adenylate cyclase type 5 (Rattus norvegicus) (UniProt Q04400); experiment: Percent stimulation ofcAMP production was measured in vitro using rat liver plasma membrane bioassay; format: functional, cell-free
Glucagon receptor = Glucagon receptor (Rattus norvegicus, UniProt P30082); experiment: In vitro receptor binding affinity (95% CL) using rat liver plasma membrane bioassay
[6] = pA2 values were obtained from the dose / response plots; format: ADME

Adenylate cyclase type 5 (Rattus norvegicus), sequence (Q04400 whole entry): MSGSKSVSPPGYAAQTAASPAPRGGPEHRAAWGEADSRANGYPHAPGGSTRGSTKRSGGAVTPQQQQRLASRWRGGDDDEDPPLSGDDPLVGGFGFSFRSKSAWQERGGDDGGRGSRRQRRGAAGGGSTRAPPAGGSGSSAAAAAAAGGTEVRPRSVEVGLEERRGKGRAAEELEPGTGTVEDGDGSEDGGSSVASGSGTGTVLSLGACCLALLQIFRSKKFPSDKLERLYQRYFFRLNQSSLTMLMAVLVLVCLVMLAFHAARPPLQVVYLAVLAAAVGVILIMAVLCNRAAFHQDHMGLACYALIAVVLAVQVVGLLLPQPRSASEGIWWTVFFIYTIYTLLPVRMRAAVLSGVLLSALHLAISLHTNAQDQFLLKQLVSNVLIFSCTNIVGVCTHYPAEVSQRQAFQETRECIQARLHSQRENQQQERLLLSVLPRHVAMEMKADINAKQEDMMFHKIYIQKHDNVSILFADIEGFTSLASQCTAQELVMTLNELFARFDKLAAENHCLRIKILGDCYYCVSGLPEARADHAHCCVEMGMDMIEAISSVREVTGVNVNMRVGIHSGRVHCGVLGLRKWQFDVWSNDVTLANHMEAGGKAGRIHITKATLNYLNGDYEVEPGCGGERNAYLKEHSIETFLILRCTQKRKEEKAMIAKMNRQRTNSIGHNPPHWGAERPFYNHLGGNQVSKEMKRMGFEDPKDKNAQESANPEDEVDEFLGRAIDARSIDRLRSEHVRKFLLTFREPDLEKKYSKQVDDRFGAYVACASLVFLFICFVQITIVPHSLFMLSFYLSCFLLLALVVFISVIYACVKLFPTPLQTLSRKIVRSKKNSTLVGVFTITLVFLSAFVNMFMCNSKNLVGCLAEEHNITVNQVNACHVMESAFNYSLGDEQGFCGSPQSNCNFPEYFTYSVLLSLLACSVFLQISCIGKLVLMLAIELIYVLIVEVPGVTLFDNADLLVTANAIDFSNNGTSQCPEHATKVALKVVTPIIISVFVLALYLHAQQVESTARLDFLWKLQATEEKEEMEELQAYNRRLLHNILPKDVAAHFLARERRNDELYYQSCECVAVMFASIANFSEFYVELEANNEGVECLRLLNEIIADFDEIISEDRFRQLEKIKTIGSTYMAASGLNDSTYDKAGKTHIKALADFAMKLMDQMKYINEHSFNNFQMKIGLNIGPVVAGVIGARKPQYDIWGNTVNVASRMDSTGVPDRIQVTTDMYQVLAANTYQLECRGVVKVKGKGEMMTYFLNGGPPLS
Glucagon receptor, sequence (P30082 whole entry): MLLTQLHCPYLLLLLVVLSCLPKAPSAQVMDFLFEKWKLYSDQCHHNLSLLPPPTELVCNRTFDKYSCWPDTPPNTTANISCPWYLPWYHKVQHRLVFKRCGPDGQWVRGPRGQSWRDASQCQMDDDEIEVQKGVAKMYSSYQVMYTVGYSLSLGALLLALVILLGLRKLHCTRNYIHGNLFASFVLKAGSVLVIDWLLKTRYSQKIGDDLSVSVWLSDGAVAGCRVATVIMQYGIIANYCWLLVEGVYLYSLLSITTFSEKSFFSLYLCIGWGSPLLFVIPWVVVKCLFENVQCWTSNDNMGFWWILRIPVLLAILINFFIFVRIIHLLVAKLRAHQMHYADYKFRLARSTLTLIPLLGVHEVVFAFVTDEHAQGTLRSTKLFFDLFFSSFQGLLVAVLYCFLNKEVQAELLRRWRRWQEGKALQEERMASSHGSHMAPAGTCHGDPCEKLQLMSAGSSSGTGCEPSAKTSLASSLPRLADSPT
Glucagon receptor (Rattus norvegicus), sequence (P30082 whole entry): as above

IC50 (Glucagon receptor) [nM]	Compound	Potency [4] [%]	Max stimulation [5] [%]	other results
	CSCC[C@H](NC(=O)[C@H](CC(C)C)NC(=O)[C@H](Cc1c[nH]c2ccccc12)NC(=O)[C@H](CCC(N)=O)NC(=O)[C@@H](NC(=O)[C@@H](Cc1ccccc1)NC(=O)[C@@H]1CCC(=O)NCCCC[C@H](NC(=O)[C@H](CO)NC(=O)[C@@H](CC(=O)O)NC(=O)[C@@H](CC(C)C)NC(=O)[C@H](Cc2ccc(O)cc2)NC(=O)[C@H]2CCCCNC(=O)C[C@H](NC(=O)[C@H](CO)NC(=O)[C@H](NC(=O)[C@@H](Cc3ccccc3)NC(=O)[C@H](NC(=O)CNC(=O)[C@@H](CCC(N)=O)NC(=O)[C@@H](CO)NC(=O)[C@H](N)Cc3c[nH]cn3)[C@H](C)O)[C@H](C)O)C(=O)N[C@@H](Cc3ccc(O)cc3)C(=O)N[C@H](CO)C(=O)N2)C(=O)N[C@@H](CCCCN)C(=O)N[C@H](C)C(=O)N[C@@H](CCC(N)=O)C(=O)N1)C(C)C)C(=O)N[C@@H](CC(N)=O)C(=O)N[C@H](C(N)=O)[C@@H](C)O			Potency [1]: Inactive up to 50 uM; IA [2]: inactive; Max stimulation [3]: inactive
	CSCC[C@@H](NC(=O)[C@@H](CC(C)C)NC(=O)[C@@H](Cc1c[nH]c2ccccc12)NC(=O)[C@@H](CCC(N)=O)NC(=O)[C@H](NC(=O)[C@H](Cc1ccccc1)NC(=O)[C@H]1CCC(=O)NCCCC[C@H](NC(=O)[C@H](CCCCN)NC(=O)[C@@H](CO)NC(=O)[C@@H](CC(=O)O)NC(=O)[C@@H](CC(C)C)NC(=O)[C@@H](Cc2ccc(O)cc2)NC(=O)[C@@H](CCCCN)NC(=O)[C@@H](CO)NC(=O)[C@@H](Cc2ccc(O)cc2)NC(=O)[C@@H](CC(=O)O)NC(=O)[C@@H](CO)NC(=O)[C@H](NC(=O)[C@@H](Cc2ccccc2)NC(=O)[C@H](NC(=O)CNC(=O)[C@@H](CCC(N)=O)NC(=O)[C@@H](CO)NC(=O)[C@H](N)Cc2c[nH]cn2)[C@H](C)O)[C@H](C)O)C(=O)N[C@@H](C)C(=O)N[C@H](CCC(N)=O)C(=O)N1)C(C)C)C(=O)N[C@H](CC(N)=O)C(=O)N[C@@H](C(N)=O)[C@H](C)O	1.6	60	
	GLUCAGON	100	100	
250	CSCC[C@H](NC(=O)[C@H](CC(C)C)NC(=O)[C@H](Cc1c[nH]c2ccccc12)NC(=O)[C@H](CCC(N)=O)NC(=O)[C@@H](NC(=O)[C@H](Cc1ccccc1)NC(=O)[C@H](CCC(=O)O)NC(=O)[C@H](CCC(N)=O)NC(=O)[C@H](C)NC(=O)[C@H](CCCCN)NC(=O)[C@H](CCCCN)NC(=O)[C@H](CO)NC(=O)[C@H](CC(=O)O)NC(=O)[C@H](CC(C)C)NC(=O)[C@H](Cc1ccc(O)cc1)NC(=O)[C@@H]1CCCCNC(=O)C[C@H](NC(=O)[C@H](CO)NC(=O)[C@@H](NC(=O)[C@H](Cc2ccccc2)NC(=O)[C@@H](NC(=O)CNC(=O)[C@H](CCC(N)=O)NC(=O)[C@H](CO)NC(=O)[C@@H](N)Cc2cnc[nH]2)[C@@H](C)O)[C@@H](C)O)C(=O)N[C@@H](Cc2ccc(O)cc2)C(=O)N[C@@H](CO)C(=O)N1)C(C)C)C(=O)N[C@@H](CC(N)=O)C(=O)N[C@H](C(N)=O)[C@@H](C)O (H-HSQGTFTSDYSKYLDSKKAQEFVQWLMNT-NH2; lactam 9-12)			pA2 [6]: 6.3
54	CSCC[C@H](NC(=O)[C@H](CC(C)C)NC(=O)[C@H](Cc1c[nH]c2ccccc12)NC(=O)[C@H](CCC(N)=O)NC(=O)[C@@H](NC(=O)[C@H](Cc1ccccc1)NC(=O)[C@@H]1CCC(=O)NCCCC[C@H](NC(=O)[C@H](CCCCN)NC(=O)[C@H](CO)NC(=O)[C@H](CC(=O)O)NC(=O)[C@H](CC(C)C)NC(=O)[C@H](Cc2ccc(O)cc2)NC(=O)[C@H](CCCCN)NC(=O)[C@H](CO)NC(=O)[C@H](Cc2ccc(O)cc2)NC(=O)[C@H](CC(=O)O)NC(=O)[C@H](CO)NC(=O)[C@@H](NC(=O)[C@H](Cc2ccccc2)NC(=O)[C@@H](NC(=O)CNC(=O)[C@H](CCC(N)=O)NC(=O)[C@H](CO)NC(=O)[C@@H](N)Cc2c[nH]cn2)[C@@H](C)O)[C@@H](C)O)C(=O)N[C@@H](C)C(=O)N[C@@H](CCC(N)=O)C(=O)N1)C(C)C)C(=O)N[C@@H](CC(N)=O)C(=O)N[C@H](C(N)=O)[C@@H](C)O			EC50 (Glucagon receptor): 320 nM
